Earlier results in publication PMC11258486, “Phase 1 dose escalation study of the MDM2 inhibitor milademetan as monotherapy and in combination with azacitidine in patients with myeloid malignancies” (Cancer Medicine, 2024).

Columns and labels:
AML = system: AML; design: method as in PMID 26459177; settings: phase 1 clinical study in AML; cited from earlier work
relapsed/refractory AML = system: relapsed/refractory AML; design: method as in PMID 35413116; settings: relapsed/refractory AML and wild‐type p53; cited from earlier work

Structure (SMILES) | response rate (AML) | overall response rate (relapsed/refractory AML) [%]
CCOc1cc(C(C)(C)C)ccc1C1=N[C@@](C)(c2ccc(Cl)cc2)[C@@](C)(c2ccc(Cl)cc2)N1C(=O)N1CCN(CCCS(C)(=O)=O)CC1 [RG7112] | ~ 25% | –
Nc1ccn([C@@H]2O[C@H](CO)[C@@H](O)[C@@H]2O)c(=O)n1 [cytarabine] | – | 22
